What was measured:
[1] = target: PCP site of the NMDA-PCP receptor complex; assay: [3H]TCP binding to synaptic plasma membranes under basal conditions; parameters: species or system rat
Description: (§1) [^3 H]TCP binding was performed using Triton X-100 washed synaptic plasma membranes (SPM) prepared from rat forebrain (30-45 day old, male Sprague-Dawley; Sasco, St. Charles, Mo.) as described previously [J. W. Thomas, W. F. Hood, J. B. Monahan, P. C. Contreras and T. L. O'Donohue, Brain Res., 442, 396-398 (1988)]. […] The samples were then filtered though glass fiber filters (Schleicher and Schuell #32) which were pretreated with 0.05% (v/v) polyethylenimine. The filters were washed and the radioactivity quantitated by liquid scintillation spectrometry. […] The EC50 values for the stimulation of [^3 H]TCP binding were determined using a four parameter logistic regression analysis.

[2] = system: Male Long-Evans rats; assay: Passive avoidance assay; format: in vivo, rat; conditions: for Latency to enter box 24 hours after shock: n = 6; for Latency in Seconds in Passive Avoidance: saline 11.9
Description: Subjects: Male Long-Evans rats weighing about 200 g (Sasco) were used. They were housed two per cage with ad lib food and water for the duration of the experiment.
Apparatus: The apparatus consisted of a plexiglass box (32×26×20 cm) with a lid with a floor of metal rods spaced 1.8 cm apart. The box was divided into two chambers, one painted black and the other gray. Two doors (12 cm high) were cut into the front of the box allowing access into each chamber.
A Y-shaped plexiglas runway was attached to the front of the box. The stem of the Y was 16 cm long and unpainted. The arms of the Y (14 cm long each) led to the two doors and each was painted the color of the chamber to which it led. The stem of the Y extended over the edge of the table on which the apparatus was placed, so that it was approximately 75 cm above the floor. The metal floor of the box was wired to a Lafayette shock generator so that a 0.5 mAmp shock could be delivered.
Procedure: On the first rest day, each rat was placed on the runway and allowed to enter one of the chambers. The door to this chamber was then closed, and the rat was then allowed to enter the other chamber. […] Sixty minutes later, each rat was again allowed to enter one chamber, where it received a footshock for 2 seconds. […] On the third test day, the rat is again placed on the runway and allowed to enter a chamber. On days two and three, each rat's latency to enter a chamber, and which chamber it entered, are recorded.

[3] = system: Rats; assay: Rewarded alternation of rats in a T-maze; format: in vivo, rat; conditions: 3 mg/kg i.p.
Description: Both groups learned the task in about 20 trials. Learning is defined as making 9 correct out of 10 consecutive choices. On the following day, the food reward was placed in the other arm of the maze (reversal).

[4] = target: T1, NMDA receptor-associated glycine recognition site (Glycine B receptor) (Rattus norvegicus, UniProt P35439); assay: TCP modulation assay (stimulation of [3H]TCP binding); format: biochemical; conditions: in the presence of 0.6 μM glycine; basal binding 2583 ±381 DPM
T1 construct: synaptic plasma membranes (SPM) prepared from rat forebrain; tissue Sasco, St. Charles, Mo; (animals); host or cells: forebrain synaptic plasma membranes of 30-45 day old male Sprague-Dawley rats, Triton X-100 washed
Description: as §1

[5] = glycine prodrug; cited from earlier work

## c1csc(C2(N3CCCCC3)CCCCC2)c1 [[^3 H]TCP]
[1]
  Kd: 44 nM

## N[C@@H]1CONC1=O [D-cycloserine, 4-amino-3-isoxazolidone]
[2]; 0.3 mg/kg i.p., post-shock
  % of Saline Control Latency in Passive Avoidance: 160%
[2]; 0.3 mg/kg i.p., pre-retrieval
  % of Saline Control Latency in Passive Avoidance: 105%
[2]; 0.3 mg/kg i.p., pre-shock
  % of Saline Control Latency in Passive Avoidance: 152%
[2]; 3 mg/kg i.p., post-shock
  % of Saline Control Latency in Passive Avoidance: 215%
[2]; 3 mg/kg i.p., pre-retrieval
  % of Saline Control Latency in Passive Avoidance: 153%
[2]; 3 mg/kg i.p., pre-shock
  % of Saline Control Latency in Passive Avoidance: 245%
[2]; 10 mg/kg i.p., drug after shock
  Latency to enter box 24 hours after shock: 22.8 ± 2.4 s
[2]; 10 mg/kg i.p., drug before shock
  Latency to enter box 24 hours after shock: 16.6 ± 3.0 s
[2]; 10 mg/kg i.p., post-shock
  % of Saline Control Latency in Passive Avoidance: 153%
[2]; 10 mg/kg i.p., pre-retrieval
  % of Saline Control Latency in Passive Avoidance: 180%
[2]; 10 mg/kg i.p., pre-shock
  % of Saline Control Latency in Passive Avoidance: 138%
[2]; 20 mg/kg i.p., pre-retrieval
  % of Saline Control Latency in Passive Avoidance: 100%
[2]; 60 mg/kg I.G.
  Latency in Seconds in Passive Avoidance: 17.3 s
[3]; following day, saline about 32 trials
  Trials to learn the reversal: about 20 trials
[3]; initial task
  Trials to learn place learning task (9 correct out of 10 consecutive choices): about 20 trials

## C[C@@H](N)C(=O)O [D-alanine]
[2]; 534 mg/kg I.G.
  Latency in Seconds in Passive Avoidance: 10.9 s

## NCC(=O)O [Glycine]
[4]
  Maximum specific [3H]TCP binding: 4712±779 DPM

## CCCCCNCC(N)=O [milacemide]
[5]
  Increase of whole brain content of glycine: 30%
